Laboratory results: the NIST ThermoML archive (doi:10.1021/je060411g)
Values joined by “and” are separate entries in the source; they are usually repeats but may differ in a detail not shown here. Equal entries are not always repeated. ± gives the expanded uncertainty stated by the source.

Assay: molar heat capacity at constant pressure
Settings: 101.33 kPa

CCC(O)CC [3-pentanol]
Settings	molar heat capacity at constant pressure
5.43 K, Crystal	0.93 ± 0.11 J/K/mol
5.48 K, Crystal	0.88 ± 0.11 J/K/mol
6.3 K, Crystal	1.18 ± 0.13 J/K/mol
6.63 K, Crystal	1.23 ± 0.13 J/K/mol
7.14 K, Crystal	1.52 ± 0.14 J/K/mol
7.71 K, Crystal	1.85 ± 0.16 J/K/mol
7.86 K, Crystal	1.91 ± 0.16 J/K/mol
8.49 K, Crystal	2.31 ± 0.18 J/K/mol
8.59 K, Crystal	2.43 ± 0.18 J/K/mol
9.16 K, Crystal	2.77 ± 0.2 J/K/mol
9.61 K, Crystal	3.11 ± 0.21 J/K/mol
9.92 K, Crystal	3.43 ± 0.23 J/K/mol
10 K, Crystal	3.5 ± 0.23 J/K/mol
10.7 K, Crystal	4.04 ± 0.25 J/K/mol
10.73 K, Crystal	4.07 ± 0.26 J/K/mol
11.58 K, Crystal	4.8 ± 0.28 J/K/mol
11.84 K, Crystal	5.04 ± 0.29 J/K/mol
12.49 K, Crystal	5.7 ± 0.32 J/K/mol
13.05 K, Crystal	6.15 ± 0.33 J/K/mol
13.45 K, Crystal	6.53 ± 0.35 J/K/mol
14.32 K, Crystal	7.35 ± 0.37 J/K/mol
14.43 K, Crystal	7.58 ± 0.38 J/K/mol
15 K, Crystal	8.21 ± 0.4 J/K/mol
15.45 K, Crystal	8.54 ± 0.41 J/K/mol
15.63 K, Crystal	8.59 ± 0.41 J/K/mol
16.51 K, Crystal	9.66 ± 0.45 J/K/mol
16.98 K, Crystal	10.07 ± 0.46 J/K/mol
17.58 K, Crystal	10.69 ± 0.48 J/K/mol
18.36 K, Crystal	11.47 ± 0.5 J/K/mol
18.67 K, Crystal	11.8 ± 0.51 J/K/mol
19.77 K, Crystal	13.01 ± 0.54 J/K/mol and 12.97 ± 0.54 J/K/mol
20 K, Crystal	13.21 ± 0.54 J/K/mol
20.89 K, Crystal	14.13 ± 0.56 J/K/mol
21.2 K, Crystal	14.45 ± 0.57 J/K/mol
22.02 K, Crystal	15.43 ± 0.59 J/K/mol
22.64 K, Crystal	16.12 ± 0.61 J/K/mol
23.16 K, Crystal	16.63 ± 0.62 J/K/mol
24.11 K, Crystal	17.73 ± 0.64 J/K/mol
24.31 K, Crystal	18.04 ± 0.64 J/K/mol
25 K, Crystal	18.82 ± 0.66 J/K/mol
25.43 K, Crystal	19.3 ± 0.66 J/K/mol
25.59 K, Crystal	19.51 ± 0.67 J/K/mol
26.27 K, Crystal	19.88 ± 0.66 J/K/mol
26.44 K, Crystal	21 ± 0.69 J/K/mol
26.46 K, Crystal	20.69 ± 0.68 J/K/mol
27.41 K, Crystal	20.88 ± 0.67 J/K/mol
27.44 K, Crystal	20.97 ± 0.67 J/K/mol
28.31 K, Crystal	21.71 ± 0.68 J/K/mol
29.2 K, Crystal	22.65 ± 0.69 J/K/mol
30 K, Crystal	23.56 ± 0.68 J/K/mol
30.84 K, Crystal	24.51 ± 0.7 J/K/mol
32.44 K, Crystal	26.27 ± 0.74 J/K/mol
34.05 K, Crystal	27.98 ± 0.78 J/K/mol
35 K, Crystal	28.96 ± 0.8 J/K/mol
35.7 K, Crystal	29.65 ± 0.82 J/K/mol
37.37 K, Crystal	30.89 ± 0.84 J/K/mol
39.08 K, Crystal	32.33 ± 0.88 J/K/mol
40 K, Crystal	33.19 ± 0.9 J/K/mol
40.8 K, Crystal	33.94 ± 0.91 J/K/mol
42.52 K, Crystal	35.56 ± 0.95 J/K/mol
44.25 K, Crystal	37.13 ± 0.98 J/K/mol
45 K, Crystal	37.81 ± 1 J/K/mol
46 K, Crystal	38.7 ± 1 J/K/mol
47.76 K, Crystal	40.3 ± 1.1 J/K/mol
49.53 K, Crystal	41.89 ± 1.1 J/K/mol
50 K, Crystal	42.29 ± 1.1 J/K/mol
51.31 K, Crystal	43.33 ± 1.1 J/K/mol
53.11 K, Crystal	44.7 ± 1.2 J/K/mol
54.91 K, Crystal	46.08 ± 1.2 J/K/mol
55 K, Crystal	46.14 ± 1.2 J/K/mol
56.73 K, Crystal	47.47 ± 1.2 J/K/mol
58.56 K, Crystal	48.81 ± 1.2 J/K/mol
60 K, Crystal	49.88 ± 1.3 J/K/mol
60.4 K, Crystal	50.18 ± 1.3 J/K/mol
62.25 K, Crystal	51.52 ± 1.3 J/K/mol
64.1 K, Crystal	52.82 ± 1.3 J/K/mol
65 K, Crystal	53.44 ± 1.4 J/K/mol
65.97 K, Crystal	54.11 ± 1.4 J/K/mol
67.84 K, Crystal	55.41 ± 1.4 J/K/mol
69.72 K, Crystal	56.67 ± 1.4 J/K/mol
70 K, Crystal	56.86 ± 1.4 J/K/mol
71.6 K, Crystal	57.95 ± 1.5 J/K/mol
73.49 K, Crystal	59.18 ± 1.5 J/K/mol
75 K, Crystal	60.13 ± 1.5 J/K/mol
75.38 K, Crystal	60.37 ± 1.5 J/K/mol
77.28 K, Crystal	61.55 ± 1.5 J/K/mol
79.19 K, Crystal	62.78 ± 1.6 J/K/mol
80 K, Crystal	63.27 ± 1.6 J/K/mol
81.1 K, Crystal	63.93 ± 1.6 J/K/mol
83.01 K, Crystal	65.07 ± 1.6 J/K/mol
84.93 K, Crystal	66.32 ± 1.6 J/K/mol
85 K, Crystal	66.36 ± 1.6 J/K/mol
86.86 K, Crystal	67.47 ± 1.7 J/K/mol
88.78 K, Crystal	68.55 ± 1.7 J/K/mol
90 K, Crystal	69.21 ± 2.1 J/K/mol
90.7 K, Crystal	69.61 ± 2.1 J/K/mol
92.62 K, Crystal	70.75 ± 2.1 J/K/mol
94.54 K, Crystal	71.9 ± 2.1 J/K/mol
95 K, Crystal	72.17 ± 2.1 J/K/mol
96.47 K, Crystal	72.98 ± 2.1 J/K/mol
98.4 K, Crystal	74.27 ± 2.1 J/K/mol
98.9 K, Glass	77.69 ± 2.2 J/K/mol
99.63 K, Glass	77.09 ± 2.2 J/K/mol
100 K, Crystal	76.23 ± 2.2 J/K/mol
100.34 K, Crystal	75.65 ± 2.2 J/K/mol
100.42 K, Crystal	75.69 ± 2.2 J/K/mol
100.73 K, Crystal	75.56 ± 2.2 J/K/mol
101.47 K, Glass	78.26 ± 2.2 J/K/mol
101.88 K, Crystal	76.15 ± 2.2 J/K/mol
103.84 K, Crystal	77.02 ± 2.2 J/K/mol
104.37 K, Glass	79.98 ± 2.2 J/K/mol
105 K, Crystal	79.46 ± 2.2 J/K/mol
105.79 K, Crystal	78.1 ± 2.2 J/K/mol
107.23 K, Glass	82.34 ± 2.3 J/K/mol
107.74 K, Crystal	79.42 ± 2.2 J/K/mol
109.68 K, Crystal	80.42 ± 2.3 J/K/mol
110 K, Crystal	83.89 ± 2.3 J/K/mol
110.1 K, Glass	84.56 ± 2.3 J/K/mol
111.63 K, Crystal	81.37 ± 2.3 J/K/mol
112.97 K, Glass	86.83 ± 2.4 J/K/mol
113.58 K, Crystal	82.36 ± 2.3 J/K/mol
115.54 K, Crystal	83.34 ± 2.4 J/K/mol
115.84 K, Glass	89.3 ± 2.4 J/K/mol
117.49 K, Crystal	84.31 ± 2.3 J/K/mol
118.71 K, Glass	92.11 ± 2.5 J/K/mol
119.44 K, Crystal	85.07 ± 2.3 J/K/mol
120 K, Crystal	82.36 ± 2.3 J/K/mol
121.39 K, Crystal	86.04 ± 2.5 J/K/mol
121.59 K, Glass	95.01 ± 2.5 J/K/mol
123.34 K, Crystal	87.47 ± 2.4 J/K/mol
124.46 K, Glass	99.21 ± 2.6 J/K/mol
125.29 K, Crystal	88.5 ± 2.4 J/K/mol
127.24 K, Crystal	89.59 ± 2.4 J/K/mol
127.34 K, Glass	104.26 ± 2.7 J/K/mol
129.2 K, Crystal	90.65 ± 2.5 J/K/mol
131.15 K, Crystal	91.7 ± 2.5 J/K/mol
133.11 K, Crystal	92.81 ± 2.5 J/K/mol
135.06 K, Crystal	93.83 ± 2.5 J/K/mol
135.56 K, Liquid	147.41 ± 3.5 J/K/mol
137.01 K, Crystal	94.96 ± 2.5 J/K/mol
138.31 K, Liquid	149.27 ± 3.6 J/K/mol
138.96 K, Crystal	95.99 ± 2.5 J/K/mol
140.92 K, Crystal	97.1 ± 2.6 J/K/mol
141.2 K, Liquid	149.61 ± 3.6 J/K/mol
142.87 K, Crystal	98.24 ± 2.6 J/K/mol
144.14 K, Liquid	149.91 ± 3.6 J/K/mol
144.82 K, Crystal	99.32 ± 2.6 J/K/mol
146.77 K, Crystal	100.55 ± 2.6 J/K/mol
147.09 K, Liquid	150.15 ± 3.6 J/K/mol
148.72 K, Crystal	101.76 ± 2.7 J/K/mol
150.04 K, Liquid	150.36 ± 3.6 J/K/mol
150.67 K, Crystal	103.08 ± 2.7 J/K/mol
152.61 K, Crystal	104.4 ± 2.7 J/K/mol
